Experimental data as given in ChEMBL document CHEMBL4382228, “Small molecules as inhibitors of PCSK9: Current status and future challenges” (Eur J Med Chem, 2019).

Tests used:
[1] = target: T1, Proprotein convertase subtilisin/kexin type 9 (Homo sapiens, UniProt Q8NBP7); assay: Binding affinity to PCSK9 (unknown origin) by SPR assay
[2] = tested on: Huh-7; assay: Inhibition of PCSK9 mRNA expression in human HuH7 cells at 2 uM after 24 hrs by qRT-PCR assay relative to control; assay type: functional; conditions: Huh-7, 24 h
[3] = tested on: Huh-7; assay: Increase in LDLR protein expression in human HuH7 cells at 2 uM after 24 hrs by immunoblotting assay relative to control; assay type: functional
[4] = tested on: Huh-7; assay: Increase in LDLR mRNA expression in human HuH7 cells at 2 uM after 24 hrs by qRT-PCR assay relative to control; assay type: functional
[5] = tested on: HepG2; assay: Inhibition of PCSK9 mRNA expression in human HepG2 cells after 24 hrs by SYBR Green I dye-based qRT-PCR analysis; assay type: functional, cell-based; conditions: HepG2, 24 h
[6] = tested on: HepG2; assay: Inhibition of PCSK9 mRNA expression in human HepG2 cells at 20 uM after 24 hrs by qRT-PCR analysis relative to control; assay type: functional; conditions: HepG2, 24 h
[7] = tested on: Mus musculus; assay: Decrease in cholesterol level in C57BL/6 mouse fed with high fat diet at 10 mg/kg, po administered daily for 5 days relative to control; assay type: functional; set-up: scale not given: the % may be the effect or the level left
[8] = tested on: HepG2; assay: Inhibition of PCSK9 mRNA expression in human HepG2 cells by SYBR Green I dye-based qRT-PCR analysis; assay type: functional, cell-based
[9] = target: T1, Proprotein convertase subtilisin/kexin type 9; assay: Inhibition of human recombinant PCSK9 expressed in CHO-K1 cells assessed as alkaline phosphatase secretion incubated overnight and measured after 3 days by HTS assay; assay type: cell-based
[10] = target: T1, Proprotein convertase subtilisin/kexin type 9; assay: Inhibition of human recombinant full length ProLabel-tagged PCSK9 expressed in CHO-K1 cells incubated overnight and measured after 3 days by HTS assay; assay type: cell-based
[11] = tested on: CHO-K1; assay: Cytotoxicity against CHOK1 cells expressing human recombinant full length ProLabel-tagged PCSK9 after overnight incubation by CellTiter blue assay; assay type: cell-based; conditions: Cricetulus griseus
[12] = target: T1, Proprotein convertase subtilisin/kexin type 9; assay: Inhibition of human recombinant full length ProLabel-tagged PCSK9 expressed in CHO-K1 cells incubated overnight and measured after 3 days by chemiluminescence assay; assay type: cell-based
[13] = tested on: Hepatocyte; assay: Inhibition of PCSK9 mRNA expression in mouse primary hepatocytes at 2 uM after 24 hrs relative to control; assay type: functional
[14] = target: 80S Ribosome; assay: Binding affinity to 80S ribosome in human HuH7 cells expressing human C-terminal V5/6-His-tagged PCSK9 assessed as inhibition of PCSK9 secretion after 16 to 24 hrs by AlphaLISA method; assay type: cell-based; conditions: huh-7
[15] = target: T1, Proprotein convertase subtilisin/kexin type 9; assay: Inhibition of PCSK9 in human HepG2 cells assessed as increase in LDL uptake after 24 hrs by fluorescence assay; assay type: cell-based
[16] = target: T1, Proprotein convertase subtilisin/kexin type 9; assay: Inhibition of wild type His-tagged PCSK9 (unknown origin) binding to recombinant LDLR-AB domain (unknown origin) after 2 hrs by fluorescence assay
[17] = tested on: HepG2; assay: Inhibition of PCSK9 mRNA expression in human HepG2 cells after 24 hrs by qRT-PCR analysis; assay type: functional, cell-based; conditions: HepG2, 24 h
[18] = tested on: Hepatocyte; assay: Inhibition of PCSK9 mRNA expression in mouse primary hepatocytes at 2.5 uM after 24 hrs relative to control; assay type: functional

T1 sequence (Q8NBP7 31-152 limits assumed): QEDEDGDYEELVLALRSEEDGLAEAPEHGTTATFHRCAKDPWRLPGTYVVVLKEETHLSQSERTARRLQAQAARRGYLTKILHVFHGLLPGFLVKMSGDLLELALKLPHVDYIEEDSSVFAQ
T1 sequence (Q8NBP7 153-692 limits assumed): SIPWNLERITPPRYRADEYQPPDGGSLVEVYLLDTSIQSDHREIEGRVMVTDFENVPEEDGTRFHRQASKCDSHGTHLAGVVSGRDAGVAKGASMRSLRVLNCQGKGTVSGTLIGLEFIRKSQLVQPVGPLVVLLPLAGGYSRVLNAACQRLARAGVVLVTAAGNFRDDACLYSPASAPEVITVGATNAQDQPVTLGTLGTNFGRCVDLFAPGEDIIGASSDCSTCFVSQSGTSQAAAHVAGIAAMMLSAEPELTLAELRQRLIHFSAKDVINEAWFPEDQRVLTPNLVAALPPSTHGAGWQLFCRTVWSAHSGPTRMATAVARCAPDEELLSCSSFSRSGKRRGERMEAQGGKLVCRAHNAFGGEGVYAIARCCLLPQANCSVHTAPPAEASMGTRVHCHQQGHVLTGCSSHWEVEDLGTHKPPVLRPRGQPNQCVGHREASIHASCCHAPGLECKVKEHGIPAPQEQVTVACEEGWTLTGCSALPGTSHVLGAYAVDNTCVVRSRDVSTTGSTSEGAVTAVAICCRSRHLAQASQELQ

SMILES: CC(C)C[C@H](C(=O)N1CCN([C@@H](CC#N)C(=O)N[C@@H](CCCNC(=N)N)C(=O)N[C@H]2CCOC2=O)CC1)N1C(=O)N[C@@H](CC(=O)O)C1=O
- Kd [1]: 35.8 µM

SMILES: O=c1c(O[C@@H]2O[C@H](CO)[C@@H](O)[C@H](O)[C@H]2O)c(-c2ccc(O)c(O)c2)oc2cc(O)cc(O)c12 [ISOQUERCETIN]
- inhibition at 2 µM [2]: 20 to 30%
- Activity [3]: 300 - 400%
- Activity [4]: 60%

SMILES: COc1cc([C@@H]2O[C@H](c3cc(O)c(OC)c(OC)c3)[C@@H](C)[C@@H]2C)ccc1O
- IC50 [5]: 3.15 µM

SMILES: COc1cc(O)cc2c1C(=O)[C@H](O)[C@@H](c1ccccc1O)O2
- inhibition at 20 µM [6]: 84.4%

SMILES: CC(=O)Nc1ccc(C(=O)N2CCN(c3ccc(C)c(Cl)c3)CC2c2ccccc2)cc1 (configuration not stated)
- Activity [7]: 20 - 38%

SMILES: CC(C)[C@@H](C)/C=C/[C@@H](C)[C@H]1CCC2=C3[C@@H](O)[C@@H]4O[C@@]45C[C@@H](O)CC[C@]5(C)[C@H]3CC[C@@]21C
- IC50 [8]: 8.23 µM

SMILES: CC(C)C[C@@H](C(=O)N[C@H](CCCCN)C(=O)N[C@H]1CCOC1=O)N1CCN(C(=O)[C@H](CS)N2C(=O)N[C@H](CC(N)=O)C2=O)CC1
- Kd [1]: 41.2 µM

SMILES: CC(C)C[C@H](C(=O)N1CCN([C@@H](CC(N)=O)C(=O)N[C@@H](CCCNC(=N)N)C(=O)N[C@H]2CCOC2=O)CC1)N1C(=O)N[C@@H](CC(=O)O)C1=O
- Kd [1]: 24.8 µM

SMILES: COc1c2c(cc3c1-c1c(cc4c(c1OC)OCO4)C[C@H](C)[C@H](C)C3)OCO2 [SCHISANDRIN C]
- IC50 [5]: 3.85 µM

SMILES: O=C(Nc1ccc(-c2nc3ccccc3o2)cc1)c1ccc(NC(=O)c2cc3ccccc3o2)cc1
- Activity [7]: 20 - 38%

SMILES: COc1ccc(CCC(=O)N(c2nccc3ccccc23)[C@@H]2CCCNC2)cc1
- IC50 [9]: > 10 µM
- IC50 [10]: 4.8 µM
- IC50 [11]: > 10 µM
- IC50 [12]: < 10 µM

SMILES: COc1cc2c(c(OC)c1OC)-c1c(cc3c(c1OC)OCO3)C[C@@H](C)[C@@](C)(O)C2
- IC50 [5]: 1.1 µM

SMILES: Cc1ccc(N2CCN(C(=O)c3ccc(NC(N)=O)cc3)C(c3ccccc3)C2)cc1Cl (configuration not stated)
- Activity [7]: 20 - 38%

SMILES: COC(=O)c1c(C)cc(O[C@@H]2O[C@H](CO)[C@@H](O)[C@H]2O)c(OC)c1O
- IC50 [8]: 20.1 µM

SMILES: Cc1sc2c(c1C)C(c1ccccc1)=N[C@@H](CC(=O)OC(C)(C)C)c1nnc(C)n1-2
- inhibition at 2 µM [13]: > 90%

SMILES: Nc1ncnc2c1ncn2[C@@H]1O[C@H](CO)[C@@H](O)[C@H]1O [ADENOSINE]
- IC50 [8]: 18.5 µM

SMILES: O=C(c1ccc(-n2nnc3cccnc32)cc1)N(c1ncccc1Cl)[C@@H]1CCCNC1
- IC50 [14]: 0.3 µM

SMILES: C/C=C(/C)C(=O)Oc1c2c(cc3c1-c1c(cc(OC)c(OC)c1OC)C[C@](C)(O)[C@@H](C)C3)OCO2
- IC50 [5]: 0.36 µM

SMILES: Cc1cc(C(=O)C2=C(O)C(=O)N(CCCN3CCOCC3)C2c2ccncc2)ccc1OCc1ccccc1 (configuration not stated)
- Activity [7]: 20 - 38%

SMILES: Cn1cccc1-c1ccc(-c2ccc(-c3ccc(-c4ccccc4)n3C)n2C)n1C
- EC50 [15]: 6.04 µM
- IC50 [16]: 11.2 µM

SMILES: CN1C(=O)c2cc(NC(=O)c3ccc(C(F)(F)F)cc3)ccc2OC[C@@H]2O[C@H](CC(=O)NC3Cc4ccccc4C3)CC[C@@H]21
- EC50 [17]: 0.36 µM

SMILES: COc1cc2c(c(O)c1O)COC2=O
- IC50 [8]: 7.18 µM

SMILES: COc1cccc(O)c1-c1cc(=O)c2c(O)c(OC)c(OC)c(OC)c2o1 [SKULLCAPFLAVONE II]
- inhibition at 20 µM [6]: 42.4%

SMILES: CC(C)=CCc1c(O)cc(-c2cc3ccc(O)cc3o2)cc1O [MORACIN C]
- IC50 [5]: 16.8 µM

SMILES: COc1cc2c(cc1-c1c(C)noc1C)ncc1[nH]c(=O)n([C@H](C)c3ccccn3)c12
- inhibition at 2.5 µM [18]: > 90%

SMILES: CCN(CC)C(=O)c1ccc(NC(=O)CSc2nnc(-c3cccs3)n2C2CC2)cc1
- Activity [7]: 20 - 38%
